Measured values reported in ChEMBL document CHEMBL1201862, “PubChem BioAssay data set” (2004).
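Briefly, cells in 96-well plates were exposed to five compound concentrations for 48 h, and endpoints were estimated by linear interpolation. GI50 = concentration required for 50% inhibition of growth.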 Activity calls are given as the source filed them. Rule as the data show it: active = GI50 up to about 1.1 µM and inactive = higher.

Key:
Experiment in all cases: growth of human tumour cells (NCI), 48 h
NCI-H460 = system: NCI-H460
SR = system: SR
OVCAR-3 = system: OVCAR-3
SNB-78 = system: SNB-78
SK-MEL-28 = system: SK-MEL-28
RXF 393 = system: RXF 393
OVCAR-5 = system: OVCAR-5
LOX IMVI = system: LOX IMVI
U-251 = system: U-251
HCT-116 = system: HCT-116
NCI-H23 = system: NCI-H23
MOLT-4 = system: MOLT-4
HL-60 = system: HL-60
XF498 = system: XF498
SN12C = system: SN12C
EKVX = system: EKVX
M14 = system: M14
HT-29 = system: HT-29
UACC-257 = system: UACC-257
RXF 631 = system: RXF 631
HOP-18 = system: HOP-18
SF-268 = system: SF-268
DMS-273 = system: DMS-273
LXFL 529 = system: LXFL 529
SNB-19 = system: SNB-19
HCT-15 = system: HCT-15
OVCAR-4 = system: OVCAR-4
UO-31 = system: UO-31
IGROV-1 = system: IGROV-1
KM-20L2 = system: KM-20L2
COLO 205 = system: COLO 205
A549 = system: A549
M19-MEL = system: M19-MEL
DLD-1 = system: DLD-1
SNB-75 = system: SNB-75
K562 = system: K562
CCRF-CEM = system: CCRF-CEM
KM12 = system: KM12
A498 = system: A498
SW-620 = system: SW-620
UACC-62 = system: UACC-62
SK-MEL-2 = system: SK-MEL-2
SF-539 = system: SF-539
HCC 2998 = system: HCC 2998
786-0 = system: 786-0
ACHN = system: ACHN
HOP-92 = system: HOP-92
HOP-62 = system: HOP-62
SK-OV-3 = system: SK-OV-3
SF-295 = system: SF-295
TK-10 = system: TK-10
OVCAR-8 = system: OVCAR-8
SK-MEL-5 = system: SK-MEL-5
DMS-114 = system: DMS-114
Malme-3M = system: Malme-3M

With `C=C1CC(CC(=O)C(C)CC2CC(=C)C(=O)O2)OC1=O` (stereo not given) the GI50 (NCI-H460) was 32.1 µM (inactive), the GI50 (SR) was 3.3 µM (inactive) and the GI50 (OVCAR-3) was 17.7 µM (inactive). The GI50 (SNB-78) was 17.3 µM (inactive), the GI50 (SK-MEL-28) was 15.8 µM (inactive) and the GI50 (RXF 393) was 18.7 µM (inactive). The GI50 (OVCAR-5) was 65.9 µM (inactive), the GI50 (LOX IMVI) was 15.6 µM (inactive) and the GI50 (U-251) was 71.4 µM (inactive). The GI50 (HCT-116) was 12.1 µM (inactive), the GI50 (NCI-H23) was 18.8 µM (inactive) and the GI50 (MOLT-4) was 11.5 µM (inactive). The GI50 (HL-60) was 14 µM (inactive), the GI50 (XF498) was 23.8 µM (inactive) and the GI50 (SN12C) was 16.7 µM (inactive). The GI50 (EKVX) was 52.2 µM (inactive), the GI50 (M14) was 15.8 µM (inactive) and the GI50 (HT-29) was 26.2 µM (inactive). The GI50 (UACC-257) was 16.4 µM (inactive), the GI50 (RXF 631) was 46.3 µM (inactive) and the GI50 (HOP-18) was 22.4 µM (inactive). For the same molecule, the GI50 (SF-268) was 22.4 µM (inactive), the GI50 (DMS-273) was 23.2 µM (inactive) and the GI50 (LXFL 529) was 12.8 µM (inactive). The GI50 (SNB-19) was > 100 µM (inactive), the GI50 (HCT-15) was 18.1 µM and the GI50 (OVCAR-4) was 16.4 µM (inactive). For the same molecule, the GI50 (UO-31) was > 100 µM (inactive), the GI50 (IGROV-1) was 32.8 µM (inactive) and the GI50 (KM-20L2) was 33 µM (inactive). For the same molecule, the GI50 (COLO 205) was 13.6 µM (inactive), the GI50 (A549) was 52 µM (inactive) and the GI50 (M19-MEL) was 16.3 µM (inactive). For the same molecule, the GI50 (DLD-1) was 14.4 µM (inactive), the GI50 (SNB-75) was 61.4 µM (inactive) and the GI50 (K562) was 22.7 µM (inactive). The GI50 (CCRF-CEM) was 6.3 µM (inactive), the GI50 (KM12) was 10.5 µM (inactive) and the GI50 (A498) was 46.5 µM (inactive). The GI50 (SW-620) was 11 µM (inactive), the GI50 (UACC-62) was 15.8 µM (inactive) and the GI50 (SK-MEL-2) was 9.35 µM (inactive). The GI50 (SF-539) was 18.8 µM (inactive), the GI50 (HCC 2998) was 37.1 µM (inactive) and the GI50 (786-0) was 20.3 µM (inactive). For the same molecule, the GI50 (ACHN) was 18.6 µM (inactive), the GI50 (HOP-92) was 17.7 µM (inactive) and the GI50 (HOP-62) was > 100 µM (inactive). The GI50 (SK-OV-3) was > 100 µM (inactive), the GI50 (SF-295) was > 100 µM (inactive) and the GI50 (TK-10) was 19.1 µM (inactive). For the same molecule, the GI50 (OVCAR-8) was 28 µM (inactive), the GI50 (SK-MEL-5) was 33.3 µM (inactive) and the GI50 (DMS-114) was 21.6 µM (inactive). The GI50 (Malme-3M) was 14.5 µM (inactive).
